According to publication PMC5090035, “A Class 1 Histone Deacetylase with Potential as an Antifungal Target” (mBio, 2016):

Assays:
[1] = target: T1, RpdA (TAP-tagged wild-type RpdA) (Aspergillus nidulans, UniProt G5EB64); experiment: HDAC assay, release of [3H]acetate from prelabeled histones; format: biochemical; conditions: read-out: % inhibition at 50 nM
T1 construct: gene ANIA_04493; full-length, C12 motif present; TAP-tagged, expressed under xylPp in A. nidulans, IgG Sepharose, eluted by TEV cleavage (CBP part kept)

[2] = target: T1, RpdA (TAP-tagged wild-type RpdA); experiment: as above; format: biochemical; conditions: [3H]acetate-prelabeled chicken reticulocyte histones as substrate; 1 h, 25 C; inhibitor at 50 and 500 nM

T1 sequence (G5EB64 1-687): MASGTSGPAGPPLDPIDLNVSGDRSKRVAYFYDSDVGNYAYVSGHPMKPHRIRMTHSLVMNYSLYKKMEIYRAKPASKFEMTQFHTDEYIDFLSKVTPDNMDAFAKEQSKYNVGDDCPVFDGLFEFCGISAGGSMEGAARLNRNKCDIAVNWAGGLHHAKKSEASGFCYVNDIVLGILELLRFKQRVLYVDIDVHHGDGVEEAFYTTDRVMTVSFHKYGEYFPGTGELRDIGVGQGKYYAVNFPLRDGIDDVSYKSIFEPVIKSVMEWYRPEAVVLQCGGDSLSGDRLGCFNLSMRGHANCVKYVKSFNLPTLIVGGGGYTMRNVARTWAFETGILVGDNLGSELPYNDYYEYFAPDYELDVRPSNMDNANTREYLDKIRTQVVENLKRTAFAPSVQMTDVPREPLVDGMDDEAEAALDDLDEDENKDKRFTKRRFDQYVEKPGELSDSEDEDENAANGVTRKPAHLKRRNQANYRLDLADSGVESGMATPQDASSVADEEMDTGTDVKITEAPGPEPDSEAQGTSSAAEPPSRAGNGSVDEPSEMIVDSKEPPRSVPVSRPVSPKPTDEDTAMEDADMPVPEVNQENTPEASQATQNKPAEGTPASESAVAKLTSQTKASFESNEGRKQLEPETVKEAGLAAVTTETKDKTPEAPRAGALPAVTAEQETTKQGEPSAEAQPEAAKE

Row | SMILES | inhibition at 0.05 µM [1] [%] | % inhibition at 50 and 500 nM [2]
1 | CC(/C=C/C(=O)NO)=C\[C@@H](C)C(=O)c1ccc(N(C)C)cc1 [trichostatin A] | 70 | 
2 | O=C(CCCCCCC(=O)Nc1ccccc1)NO [vorinostat] |  | SAHA showed only weak inhibition of RpdA
